Test results reported in patent EP4707280A1, “1,4-CINEOLE DERIVATIVE AND INTERMEDIATE THEREOF, HERBICIDE CONTAINING SAID DERIVATIVE AS ACTIVE INGREDIENT, METHOD FOR USING HERBICIDE, AND METHOD FOR PREPARING AGROCHEMICAL COMPOSITION” (HOKKO CHEMICAL INDUSTRY CO., LTD., priority 2023, dated 2024).

Tests used:
Assay type in all cases: in vivo
Echinochloa crus-galli [1] = assay: Test Example 4: herbicidal effect test by stem and leaf treatment in upland field; conditions: Echinochloa crus-galli; 120 g per 10 ares; sprayed seven days after sowing, upland soil; 14 days after application; read-out: weed inhibition rate
Digitaria ciliaris [2] = assay: as above; conditions: Digitaria ciliaris; 120 g per 10 ares; sprayed seven days after sowing, upland soil; 14 days after application; read-out: weed inhibition rate
Description: (§1) The present test was conducted in duplicate for each chemical concentration group, and the weed inhibition rate (%) was determined 14 days after chemical application using the following formula (Math. 1). [formula]
(§2) Pots with an area of 36 cm^2 were filled with upland soil (alluvial loam), twenty seeds each of weeds of Digitaria ciliaris, Echinochloa crus-galli, and Amaranthus viridis were uniformly mixed with the top 1 cm layer of soil and the surface was lightly pressed down. Seven days after sowing, an emulsifiable concentrate prepared according to Formulation Example 5 using the compound shown below was diluted with water, and the diluted solution was sprayed onto the soil surface at a rate of 100 liters per 10 ares. The amount of the active ingredient to be applied was equivalent to 120 g per 10 ares. Fourteen days after chemical application, the herbicidal effect was evaluated according to the same criteria as in Test Example 1.

Echinochloa crus-galli [3] = assay: Test Example 3: herbicidal effect test by soil application in upland field; conditions: Echinochloa crus-galli, 120 g per 10 ares, sprayed one day after sowing, 14 days after application, read-out: weed inhibition rate
Description: as §1
as §2, with “crus-galli, Chenopodium album,” for “crus-galli,”, “One day” for “Seven days”

Digitaria ciliaris [4] = assay: as above; conditions: Digitaria ciliaris, 120 g per 10 ares, sprayed one day after sowing, 14 days after application, read-out: weed inhibition rate
Description: as §1
as §2, with “crus-galli, Chenopodium album,” for “crus-galli,”, “One day” for “Seven days”

[5] = test system: Echinochloa crus-galli var. formosensis; assay: Test Example 2: herbicidal effect test by application during growth period of paddy rice; conditions: Echinochloa crus-galli; 120 g per 10 ares; applied seven days after sowing, flooded pots; 14 days after application; read-out: weed inhibition rate
Description: as §1
(§3) Wagner pots with an area of […] were filled with paddy soil, followed by addition of water and incorporation of chemical fertilizer (N:P:K = 16:16:16), after which puddling was performed. After that, seeds of Echinochloa crus-galli var. formosensis, broad-leaved weeds (Monochoria vaginalis), and Scirpus juncoides were sown at a depth of 0 cm to 1 cm, 30 seeds each. Immediately after sowing, the pots were flooded and a water depth of approximately 3 cm was maintained. Subsequent management was conducted in a glass greenhouse. Seven days after sowing, an emulsifiable concentrate prepared according to Formulation Example 5 using the compound shown below was diluted with water, and a specified amount of the diluted solution was applied by dropper. The amount of the active ingredient to be applied was equivalent to 120 g per 10 ares. The test was conducted in duplicate for each chemical concentration group, and the herbicidal effect was evaluated 14 days after chemical application using the same criteria as in Test Example 1.

[6] = test system: Echinochloa crus-galli var. formosensis; assay: Test Example 1: herbicidal effect test by soil application in paddy rice; conditions: Echinochloa crus-galli, soil, 336 h; 120 g active ingredient per 10 ares; applied immediately after sowing, flooded pots; 14 days after application; read-out: weed inhibition rate
Description: as §3, with “([…] Monochoria” for “(Monochoria”, “Immediately thereafter,” for “Seven days after sowing,”, “ares.” for “ares. The test was conducted in duplicate for each chemical concentration group, and the herbicidal effect was evaluated 14 days after chemical application using the same criteria as in Test Example 1.”

CCOC1C[C@]2(C)O[C@@]1(C(C)C)C[C@H]2OCc1ccccc1F (mixture of isomers) [1-916, (1S,2R,4R,SR)-5-ethoxy-2-[(2-fluorophenyl)methoxy]-1-methyl-4-isopropyl-7-oxabicyclo[2.2.1]heptane]
≥ 80%: inhibition at 1200 g/ha (Echinochloa crus-galli [1]) | inhibition at 1200 g/ha (Digitaria ciliaris [2])

CC(C)[C@]12C[C@@H](OCc3ccc(C#N)cc3)[C@](C)(C[C@@H]1Br)O2 [1-705, 4-[[(1S,2R,4R,5S)-5-bromo-1-methyl-4-isopropyl-7-oxabicyclo[2.2.1]heptan-2-yl]oxymethyl]benzonitrile]
≥ 80%: inhibition at 1200 g/ha (Echinochloa crus-galli [3]) | inhibition at 1200 g/ha (Digitaria ciliaris [4]) | inhibition at 1200 g/ha [5] | inhibition at 1200 g/ha (Echinochloa crus-galli [1]) | pest or weed control at 1200 g/ha [6] | inhibition at 1200 g/ha (Digitaria ciliaris [2])

CC(C)=CCO[C@H]1C[C@@]2(C(C)C)O[C@]1(C)CC2Br (mixture of isomers) [1-1007, (1R,2S,4S,SR)-5-bromo-1-methyl-2-(3-methylbut-2-enoxy)-4-isopropyl-7-oxabicyclo[2.2.1]heptane]
≥ 80%: inhibition at 1200 g/ha (Echinochloa crus-galli [3]) | inhibition at 1200 g/ha (Digitaria ciliaris [4]) | inhibition at 1200 g/ha [5] | inhibition at 1200 g/ha (Echinochloa crus-galli [1]) | pest or weed control at 1200 g/ha [6] | inhibition at 1200 g/ha (Digitaria ciliaris [2])

Cc1ccc(COC2CC3(C(C)C)OC2(C)CC3Br)cc1 (stereo not drawn) [1-1345, 5-bromo-1-methyl-2-[(4-methylphenyl)methoxy]-4-isopropyl-7-oxabicyclo[2.2.1]heptane]
≥ 80%: inhibition at 1200 g/ha (Echinochloa crus-galli [3]) | inhibition at 1200 g/ha (Digitaria ciliaris [4]) | inhibition at 1200 g/ha [5] | inhibition at 1200 g/ha (Echinochloa crus-galli [1]) | pest or weed control at 1200 g/ha [6] | inhibition at 1200 g/ha (Digitaria ciliaris [2])

CC(C)[C@@]12C[C@H](OCc3ccccc3)[C@@](C)(CC1I)O2 (mixture of isomers) [1-1081, (1R,2S,4S,SR)-5-iodo-1-methyl-2-phenylmethoxy-4-isopropyl-7-oxabicyclo[2.2.1]heptane]
≥ 80%: inhibition at 1200 g/ha (Echinochloa crus-galli [3]) | inhibition at 1200 g/ha (Digitaria ciliaris [4]) | inhibition at 1200 g/ha [5] | inhibition at 1200 g/ha (Echinochloa crus-galli [1]) | pest or weed control at 1200 g/ha [6] | inhibition at 1200 g/ha (Digitaria ciliaris [2])

CC(C)[C@@]12C[C@H](OCc3ccccc3Cl)[C@@](C)(CC1Br)O2 (mixture of isomers) [1-1031, (1R,2S,4S,SR)-5-bromo-2-[(2-chlorophenyl)methoxy]-1-methyl-4-isopropyl-7-oxabicyclo[2.2.1]heptane]
≥ 80%: inhibition at 1200 g/ha (Echinochloa crus-galli [3]) | inhibition at 1200 g/ha (Digitaria ciliaris [4]) | inhibition at 1200 g/ha [5] | inhibition at 1200 g/ha (Echinochloa crus-galli [1]) | pest or weed control at 1200 g/ha [6] | inhibition at 1200 g/ha (Digitaria ciliaris [2])

CC(C)[C@]12C[C@@H](OCc3cccc(Br)c3)[C@](C)(C[C@@H]1Br)O2 [1-695, (1S,2R,4R,5S)-5-bromo-2-[(3-bromophenyl)methoxy]-1-methyl-4-isopropyl-7-oxabicyclo[2.2.1]heptane]
≥ 80%: inhibition at 1200 g/ha (Echinochloa crus-galli [3]) | inhibition at 1200 g/ha (Digitaria ciliaris [4]) | inhibition at 1200 g/ha [5] | inhibition at 1200 g/ha (Echinochloa crus-galli [1]) | pest or weed control at 1200 g/ha [6] | inhibition at 1200 g/ha (Digitaria ciliaris [2])

COc1ccc(COC2CC3(C(C)C)OC2(C)CC3Br)cc1 (stereo not drawn) [1-1351, 5-bromo-2-[(4-methoxyphenyl)methoxy]-1-methyl-4-isopropyl-7-oxabicyclo[2.2.1]heptane]
≥ 80%: inhibition at 1200 g/ha (Echinochloa crus-galli [3]) | inhibition at 1200 g/ha (Digitaria ciliaris [4]) | inhibition at 1200 g/ha [5] | inhibition at 1200 g/ha (Echinochloa crus-galli [1]) | pest or weed control at 1200 g/ha [6] | inhibition at 1200 g/ha (Digitaria ciliaris [2])

CC(C)C12CC(OCc3c(Cl)cccc3Cl)C(C)(CC1Br)O2 (stereo not drawn) [1-1380, 5-bromo-2-[(2,6-dichlorophenyl)methoxy]-1-methyl-4-isopropyl-7-oxabicyclo[2.2.1]heptane]
≥ 80%: inhibition at 1200 g/ha (Echinochloa crus-galli [3]) | inhibition at 1200 g/ha (Digitaria ciliaris [4]) | inhibition at 1200 g/ha [5] | inhibition at 1200 g/ha (Echinochloa crus-galli [1]) | pest or weed control at 1200 g/ha [6] | inhibition at 1200 g/ha (Digitaria ciliaris [2])

CC(C)[C@@]12C[C@H](OCc3ccccc3Cl)[C@@](C)(C[C@H]1I)O2 [1-1097, (1R,2S,4S,5R)-2-[(2-chlorophenyl)methoxy]-5-iodo-1-methyl-4-isopropyl-7-oxabicyclo[2.2.1]heptane]
≥ 80%: inhibition at 1200 g/ha (Echinochloa crus-galli [3]) | inhibition at 1200 g/ha (Digitaria ciliaris [4]) | inhibition at 1200 g/ha [5] | inhibition at 1200 g/ha (Echinochloa crus-galli [1]) | pest or weed control at 1200 g/ha [6] | inhibition at 1200 g/ha (Digitaria ciliaris [2])

CC(C)C12CC(OCc3cccc(F)c3)C(C)(CC1Br)O2 (stereo not drawn) [1-1356, 5-bromo-2-[(3-fluorophenyl)methoxy]-1-methyl-4-isopropyl-7-oxabicyclo[2.2.1]heptane]
≥ 80%: inhibition at 1200 g/ha (Echinochloa crus-galli [3]) | inhibition at 1200 g/ha (Digitaria ciliaris [4]) | inhibition at 1200 g/ha [5] | inhibition at 1200 g/ha (Echinochloa crus-galli [1]) | pest or weed control at 1200 g/ha [6] | inhibition at 1200 g/ha (Digitaria ciliaris [2])

CC(C)[C@@]12C[C@H](OCc3c(F)cccc3Br)[C@@](C)(C[C@H]1I)O2 [1-1601, (1R,2S,4S,5R)-2-[(2-bromo-6-fluorophenyl)methoxy]-5-iodo-1-methyl-4-isopropyl-7-oxabicyclo[2.2.1]heptane]
≥ 80%: inhibition at 1200 g/ha (Echinochloa crus-galli [3]) | inhibition at 1200 g/ha (Digitaria ciliaris [4]) | inhibition at 1200 g/ha [5] | inhibition at 1200 g/ha (Echinochloa crus-galli [1]) | pest or weed control at 1200 g/ha [6] | inhibition at 1200 g/ha (Digitaria ciliaris [2])

CC(C)[C@@]12C[C@H](OCc3c(F)cccc3Cl)[C@@](C)(C[C@H]1Br)O2 [1-1054, (1R,2S,4S,5R)-5-bromo-2-[(2-chloro-6-fluorophenyl)methoxy]-1-methyl-4-isopropyl-7-oxabicyclo[2.2.1]heptane]
≥ 80%: inhibition at 1200 g/ha (Echinochloa crus-galli [3]) | inhibition at 1200 g/ha (Digitaria ciliaris [4]) | inhibition at 1200 g/ha [5] | inhibition at 1200 g/ha (Echinochloa crus-galli [1]) | pest or weed control at 1200 g/ha [6] | inhibition at 1200 g/ha (Digitaria ciliaris [2])

COCO[C@@H]1C[C@]2(C(C)C)O[C@@]1(C)C[C@@H]2Br [1-677, (1S,2R,4R,5S)-5-bromo-2-(methoxymethoxy)-1-methyl-4-isopropyl-7-oxabicyclo[2.2.1]heptane]
≥ 80%: inhibition at 1200 g/ha [5]

C=CCO[C@@H]1C[C@]2(C(C)C)O[C@@]1(C)C[C@@H]2Br [1-671, (1S,2R,4R,5S)-5-bromo-1-methyl-4-isopropyl-2-prop-2-enoxy-7-oxabicyclo[2.2.1]heptane]
≥ 80%: inhibition at 1200 g/ha (Echinochloa crus-galli [1])

CC(C)[C@]12C[C@@H](OCc3ccc4ccccc4c3)[C@](C)(C[C@@H]1Br)O2 [1-716, (1S,2R,4R,5S)-5-bromo-1-methyl-2-(naphthalen-2-ylmethoxy)-4-isopropyl-7-oxabicyclo[2.2.1]heptane]
≥ 80%: inhibition at 1200 g/ha [5] | pest or weed control at 1200 g/ha [6]

C#CCO[C@@H]1C[C@]2(C(C)C)O[C@@]1(C)C[C@@H]2Br [1-673, (1S,2R,4R,5S)-5-bromo-1-methyl-4-isopropyl-2-prop-2-ynoxy-7-oxabicyclo[2.2.1]heptane]
≥ 80%: inhibition at 1200 g/ha [5] | pest or weed control at 1200 g/ha [6]

COc1cccc(CO[C@@H]2C[C@]3(C(C)C)O[C@@]2(C)CC3=O)c1 [2-347, (1R,4S,5R)-1-isopropyl-5-((3-methoxybenzyl)oxy)-4-methyl-7-oxabicyclo[2.2.1]heptan-2-one]
≥ 80%: inhibition at 1200 g/ha (Echinochloa crus-galli [3]) | pest or weed control at 1200 g/ha [6]

Cc1ccc(C2C[C@]3(C)O[C@@]2(C(C)C)C[C@H]3OCc2ccccc2F)cc1 (stereo partly drawn) [1-927, (1S,2R,4R)-2-((2-fluorobenzyl)oxy)-4-isopropyl-1-methyl-5-(p-tolyl)-7-oxabicyclo[2.2.1]heptane]
≥ 80%: inhibition at 1200 g/ha (Echinochloa crus-galli [3]) | inhibition at 1200 g/ha (Digitaria ciliaris [4])
